Data published in patent publication US8962608B2, “Cycloalkylnitrile pyrazole carboxamides as janus kinase inhibitors” (Merck Sharp & Dohme Corp., priority 2011, dated 2015).

Tests used:
[1] = molecular target: JAK1 (recombinant purified GST-tagged catalytic domain) (Homo sapiens (Human), UniProt P23458); experiment: biochemical;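 also: biochemical assay with HTRF read-out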
[2] = molecular target: JAK2 (recombinant purified GST-tagged catalytic domain) (Homo sapiens (Human), UniProt O60674); experiment: biochemical;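 also: biochemical JAK kinase assay with HTRF detection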
JAK2 (recombinant purified GST-tagged catalytic domain), sequence (O60674 849-1124): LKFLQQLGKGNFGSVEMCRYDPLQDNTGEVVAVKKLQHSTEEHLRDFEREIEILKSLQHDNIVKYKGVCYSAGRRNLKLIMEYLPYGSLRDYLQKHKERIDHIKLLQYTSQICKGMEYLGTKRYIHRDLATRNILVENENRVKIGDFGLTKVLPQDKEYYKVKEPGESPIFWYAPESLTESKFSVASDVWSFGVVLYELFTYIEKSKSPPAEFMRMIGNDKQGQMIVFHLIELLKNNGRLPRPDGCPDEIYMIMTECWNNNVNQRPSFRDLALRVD

JAK1 (recombinant purified GST-tagged catalytic domain), sequence (P23458 875-1153): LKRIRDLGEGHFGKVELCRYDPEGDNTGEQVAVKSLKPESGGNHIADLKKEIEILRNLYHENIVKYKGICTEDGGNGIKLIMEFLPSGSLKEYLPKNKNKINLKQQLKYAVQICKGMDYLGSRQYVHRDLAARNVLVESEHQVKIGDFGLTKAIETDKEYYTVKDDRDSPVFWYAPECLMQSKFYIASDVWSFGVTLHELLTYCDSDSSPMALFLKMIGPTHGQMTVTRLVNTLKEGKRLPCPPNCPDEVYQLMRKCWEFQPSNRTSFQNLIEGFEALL

Row | SMILES | IC50 [1] [nM] | IC50 [2] [nM]
1 | CC(C)(O)C1CN([C@H]2CC[C@H](n3cc(C(N)=O)c(Nc4ccc(C(F)(F)F)cc4)n3)[C@@H](C#N)C2)C1 (single isomer, unassigned) [Example 28-28, 1-{(1S,2S,4S or 1R,2R,4R)-2-cyano-4-[3-(1-hydroxy-1-methylethyl)azetidin-1-yl]cyclohexyl}-3-{[4-(trifluoromethyl)phenyl]amino}-1H-pyrazole-4-carboxamide] | 3 | 77
2 | C[C@H](N[C@@H]1CC[C@H](n2cc(C(N)=O)c(Nc3ccc(C(F)(F)F)cc3)n2)[C@@H](C#N)C1)C1CC1 (single isomer, unassigned) [Example 28-190, 1-[(1S,2S,4R or 1R,2R,4S)-2-cyano-4-{[(1S)-1-cyclopropylethyl]amino}cyclo-hexyl]-3-{[4-(trifluoromethyl)phenyl]amino}-1H-pyrazole-4-carboxamide] | 2 | 270
3 | N#C[C@H]1CC[C@H](O)CC1n1cc(C(N)=O)c(Nc2ccccc2)n1 (mixture of isomers) [Example 2-12, 1-[(1R,2R,5R and 1S,2S,5S)-2-cyano-5-hydroxycyclohexyl]-3-(phenylamino)-1H-pyrazole-4-carboxamide] | 15 | 79
4 | COCCN(C)[C@H]1CCC(n2cc(C(N)=O)c(Nc3ccc(Cl)cc3)n2)[C@@H](C#N)C1 (single isomer, unassigned) [Example 28-239, 3-[(4-chlorophenyl)amino]-1-{(1S,2S,4S or 1R,2R,4R)-2-cyano-4-[(2-methoxy-ethyl)(methyl)amino]cyclo-hexyl}-1H-pyrazole-4-carboxamide] | 2 | 20
5 | N#C[C@H]1C[C@H](NC2CCC2)CC[C@@H]1n1cc(C(N)=O)c(Nc2ccc(C(F)(F)F)cc2)n1 (single isomer, unassigned) [Example 30-14, 1-[(1S,2S,4R or 1R,2R,4S)-2-cyano-4-(cyclobutylamino)cyclohexyl]-3-{[4-(trifluoro-methyl)phenyl]amino}-1H-pyrazole-4-carboxamide] | 51 | 1050
6 | CC(=O)c1ccc(Nc2nn([C@H]3CC[C@H](N4CCC4)C[C@@H]3C#N)cc2C(N)=O)cc1 (single isomer, unassigned) [Example 28-84, 3-[(4-acetylphenyl)amino]-1-[(1S,2S,4S or 1R,2R,4R)-4-azetidin-1-yl-2-cyanocyclohexyl]-1H-pyrazole-4-carboxamide] | 0.3 | 9
7 | CC(C)(O)C1CN(C(=O)[C@H]2CC[C@H](n3cc(C(N)=O)c(Nc4ccc(Cl)cc4)n3)[C@@H](C#N)C2)C1 (single isomer, unassigned) [Example 35-9, 3-[(4-chlorophenyl)amino]-1-[(1S,2S,4S or 1R,2R,4R)-2-cyano-4-{[3-(1-hydroxy-1-methylethyl)azetidin-1-yl]carbonyl}cyclohexyl}-1H-pyrazole-4-carboxamide] | 30 | 315
8 | N#C[C@@H]1C[C@H](C(=O)NCC(F)(F)F)CCC1n1cc(C(N)=O)c(Nc2ccc(Cl)cc2)n1 (single isomer, unassigned) [Example 35-10, 3-[(4-chlorophenyl)amino]-1-{(1R,2R,4R or 1S,2S,4S)-2-cyano-4-[(2,2,2-trifluoroethyl)carbamoyl]cyclohexyl}-1H-pyrazole-4-carboxamide] | 3 | 38
9 | CS(=O)(=O)CCNC1CC[C@H](n2cc(C(N)=O)c(Nc3ccc(S(=O)(=O)C(F)(F)F)cc3)n2)[C@@H](C#N)C1 (single isomer, unassigned) [Example 28-148, 1-[(1S,2S or 1R,2R)-2-cyano-4-{[2-(methylsulfonyl)eth-yl]amino}cyclohexyl]-3-({4-[(trifluoromethyl)sulfon-yl]phenyl}amino)-1H-pyrazole-4-carboxamide] | 0.35 | 4
10 | COCCN(C)[C@H]1CC[C@H](n2cc(C(N)=O)c(Nc3ccc(S(=O)(=O)C(F)(F)F)cc3)n2)[C@@H](C#N)C1 (single isomer, unassigned) [Example 28-149, 1-{(1S,2S,4S or 1R,2R,4R)-2-cyano-4-[(2-methoxy-ethyl)(methyl)amino]cyclohexyl}-3-({4-[(trifluoromethyl)sulfonyl]phen-yl}amino)-1H-pyrazole-4-carboxamide] | 0.6 | 17
11 | COC1CN(C2CC[C@H](n3cc(C(N)=O)c(Nc4ccc(S(=O)(=O)C(F)(F)F)cc4)n3)[C@@H](C#N)C2)C1 (single isomer, unassigned) [Example 28-147, 1-[(1S,2S or 1R,2R)-2-cyano-4-(3-methoxyazetidin-1-yl)cyclohexyl]-3-({4-[(trifluoro-methyl)sulfonyl]phenyl}amino)-1H-pyrazole-4-carboxamide] | 0.45 | 5
12 | CN(C)[C@@H]1CC[C@H](n2cc(C(N)=O)c(Nc3ccc(Cl)c(F)c3)n2)[C@@H](C#N)C1 (single isomer, unassigned) [Example 28-38, 3-[(4-chloro-3-fluorophenyl)amino]-1-[(1S,2S,4R or 1R,2R,4S)-2-cyano-4-(dimethylamino)cyclohexyl]-1H-pyrazole-4-carboxamide] | 7 | 173
13 | N#C[C@@H]1C[C@H](OCC2CC2)CC[C@@H]1n1cc(C(N)=O)c(Nc2ccnc(F)c2)n1 (single isomer, unassigned) [Example 26-4, 1-[(1S,2R,4R or 1R,2S,4S)-2-cyano-4-(cyclopropylmethoxy)cyclohexyl]-3-[(2-fluoropyridin-4-yl)amino]-1H-pyrazole-4-carboxamide] | 21 | 74
14 | N#C[C@H]1CCCC[C@@H]1n1cc(C(N)=O)c(Nc2ccc(C(F)F)nc2)n1 (single isomer, unassigned) [Example 17-59, 1-[(1S,2S or 1R,2R)-2-cyanocyclohexyl]-3-{[6-(difluoromethyl)pyridin-3-yl]amino}-1H-pyrazole-4-carboxamide] | 2 | 13
15 | N#C[C@H]1CCCC[C@@H]1n1cc(C(N)=O)c(Nc2ccc(Cl)cc2)n1 (racemic) [Example 17-104, 3-[(4-chlorophenyl)amino]-1-[(1S,2S and 1R,2R)-2-cyanocyclohexyl]-1H-pyrazole-4-carboxamide] | 2 | 25
16 | N#C[C@H]1C[C@@H](O)CC[C@@H]1n1cc(C(N)=O)c(Nc2ccc([C@@H](O)C(F)(F)F)cc2)n1 (single isomer, unassigned) [Example 33-11, 1-[(1S,2S,4S or 1R,2R,4R)-2-cyano-4-hydroxycyclohexyl]-3-({4-[(1R or 1S)-2,2,2-trifluoro-1-hydroxyethyl]phenyl}amino)-1H-pyrazole-4-carboxamide] | 0.45 | 3
17 | N#C[C@H]1CC(N2CC[C@@H](F)C2)CC[C@@H]1n1cc(C(N)=O)c(Nc2ccc(S(=O)(=O)C(F)(F)F)cc2)n1 (single isomer, unassigned) [Example 28-159, 1-{(1S,2S or 1R,2R)-2-cyano-4-[(3R)-3-fluoropyrrolidin-1-yl]cyclohexyl}-3-({4-[(trifluoro-methyl)sulfonyl]phenyl}amino)-1H-pyrazole-4-carboxamide] | 2 | 18
18 | CN([C@@H]1CC[C@H](n2cc(C(N)=O)c(Nc3ccc(Cl)cc3)n2)[C@@H](C#N)C1)S(C)(=O)=O (racemic) [Example 38-5, 3-[(4-chlorophenyl)amino]-1-{(1S,2S,4R and 1R,2R,4S)-2-cyano-4-[methyl(methylsulfonyl)amino]cyclohexyl}-1H-pyrazole-4-carboxamide] | 12 | 46
19 | N#C[C@H]1CCC[C@H](O)C1n1cc(C(N)=O)c(Nc2ccccc2)n1 (mixture of isomers) [Example 2-7, 1-[(1R,2S,6S and 1S,2R,6R)-2-cyano-6-hydroxycyclohexyl]-3-(phenylamino)-1H-pyrazole-4-carboxamide] | 170 | 320
20 | CC1(O)CN(C(=O)[C@@H]2CC[C@@H](n3cc(C(N)=O)c(Nc4ccc(Cl)cc4)n3)[C@H](C#N)C2)C1 (single isomer, unassigned) [Example 35-27, 3-[(4-chlorophenyl)amino]-1-{(1R,2R,4R or 1S,2S,4S)-2-cyano-4 [(3-hydroxy-3-methylazetidin-1-yl)carbonyl]cyclohexyl}-1H-pyrazole-4-carboxamide] | 5 | 35
21 | C[C@H](N[C@@H]1CC[C@H](n2cc(C(N)=O)c(Nc3ccc(Cl)cc3)n2)[C@@H](C#N)C1)C1CC1 (single isomer, unassigned) [Example 28-98, 3-[(4-chlorophenyl)amino]-1-[(1S,2S,4R or 1R,2R,4S)-2-cyano-4-{[(1S)-1-cyclopropylethyl]amino}cyclo-hexyl]-1H-pyrazole-4-carboxamide] | 4 | 216
22 | N#C[C@@H]1CCCC[C@H]1n1cc(C(N)=O)c(Nc2ccc(S(=O)(=O)NCCN3CCOCC3)cc2)n1 (single isomer, unassigned) [Example 17-68, 1-[(1R,2R or 1S,2S)-2-cyanocyclohexyl]-3-({4-[(2-morpholin-4-ylethyl)sulfamoyl]phenyl}amino)-1H-pyrazole-4-carboxamide] | 0.4 | 1
23 | N#C[C@H]1C[C@@H](NCC2CC2)CC[C@@H]1n1cc(C(N)=O)c(Nc2ccc(C(F)(F)F)cc2)n1 (single isomer, unassigned) [Example 28-10, 1-{(1S,2S,4S or 1R,2R,4R)-2-cyano-4-[(cyclopropyl-methyl)amino]cyclohexyl}-3-{[4-(trifluoromethyl)phenyl]amino}-1H-pyrazole-4-carboxamide] | 3 | 64
24 | COC(=O)c1cncc(Nc2nn([C@H]3CCCC[C@@H]3C#N)cc2C(N)=O)c1 (single isomer, unassigned) [Example 17-72, methyl 5-({4-carbamoyl-1-[(1R,2R or 1S,2S)-2-cyanocyclohexyl]-1H-pyrazol-3-yl}amino)pyridine-3-carboxylate] | 12 | 89
